Patent US20110033525A1, “Diterpene Glycosides as Natural Solubilizers” (priority 2008, published 2011)
Converted amounts (≈) assume the structure as drawn. Where two headings read alike, the source gives them in different places.

Experiments:
[1] = system: various human cancer cell lines; conditions: Kaczirek 2004; read-out: Reported IC50 range; cited from earlier work
[2] = The Merck Index (1996) or Material Safety Data Sheets; cited from earlier work
[3] = system: PC3 (human prostate) cancer cells; experiment: MTT cellular proliferation assay, PC3; format: cell-based; conditions: 72 hr
Experimental: (§1) Paclitaxel and camptothecin were purchased from Sigma Chemicals (St. Louis, Mo.). […] The solution was sonicated for 60 min at 69° C. and then placed in a shaking incubator at 25° C. for 48 hr. The solution was then centrifuged at 4,000×g, and the supernatant was filtered with a 0.2 μm nylon filter. […] The sample was labeled as TXL100. To make an aqueous solution of camptothecin, about 5 mg of camptothecin was weighed into a solution containing 70 mg/ml rubusoside. The solution was sonicated for 60 min at 69° C., and then placed in a shaking incubator at 25° C. for 48 hr. The solution was then centrifuged at 4,000×g and the supernatant was filtered with a 0.2 μm nylon filter. This aqueous solution was analyzed by HPLC and contained 10 μg/ml camptothecin in the presence of 70 mg/ml rubusoside. This sample was labeled as CPT70.
(§2) Inhibition of cellular proliferation was assessed by a MTT assay. Each well of the 96-well plate contained 10^4 cells/100 μl cell culture growth medium. The cells were seeded onto the plate and placed in a 37° C. incubator overnight. On the next day, the compound treatment was set up. A series of dilutions using phosphate buffered saline (PBS) containing 10% FBS (fetal bovine serum) with either the test compound or vehicle with cell culture growth medium was made for each well with a final volume of 200 μl. Each treatment had 8 wells in a column. Prior to the addition of the test compound, the existing medium in each of the wells was aspirated completely and carefully to avoid losing cells. A series of dilutions of the aqueous samples were made ranging from 20 μl to 0.078 μl supplemented with culture media to make a final volume of 200 μl for each well. The plate was placed in a 37° C. incubator for 72 hr. On the day of the staining, MTT solution (3 mg Thiazolyl Blue Tetrazolium Bromide/ml PBS was prepared. To each well, 25 μl MTT solution was directly added. The plate was then incubated for 90 to 120 min. Afterwards, the wells were aspirated completely and carefully. Finally, 50 μl DMSO (dimethyl sulfoxide) was added to each well. The plate was read at 650 nm on a microplate reader. Cell proliferations were calculated as % of the control using the vehicle treatment as the control.
(§3) Calculations of IC50 in molar concentrations were as follows. […] Thus, 1 μl/ml of TXL solution in the culture medium equaled 17 ng TXL/ml culture medium, which equaled 19.9 nM based on the molecular weight of 854.
(§4) CPT: The sample concentration of CPT was 10 μg/ml=10 ng/μl, and the molecular weight of camptothecin is 348. Thus, 1 μl/ml of CPT solution in the culture medium equaled 10 ng CPT/ml culture medium, which equaled 28.7 nM based on the molecular weight of 348.

[4] = system: A549 (human lung) cancer cells; experiment: MTT cellular proliferation assay, A549; format: cell-based; conditions: 72 hr
Experimental: as §1
Inhibition of cellular proliferation was assessed by a MTT assay. […] On the day of the staining, MTT solution (3 mg Thiazolyl Blue Tetrazolium Bromide/ml PBS was prepared. To each well, 25 μl MTT solution was directly added. The plate was then incubated for 90 to 120 min. Afterwards, the wells were aspirated completely and carefully. Finally, 50 μl DMSO (dimethyl sulfoxide) was added to each well. The plate was read at 650 nm on a microplate reader. Cell proliferations were calculated as % of the control using the vehicle treatment as the control. […]

[5] = system: PANC-1 (human pancreatic) cancer cells; experiment: MTT cellular proliferation assay, PANC-1; format: cell-based; conditions: 72 hr
Experimental: as §1, §2, §3, §4

[6] = Stability of solubilizers and solubilized water solutions (heat, pH, light, storage)
physchem = conditions: for solubility: 25 °C, thermodynamic from solid
Experimental: Solubility test methods: A compound with low solubility was selected and weighed into multiple centrifuge tubes. Each experimental tube received a known amount of the solubilizing agent being tested. The control tubes remained only with the compound. The same volume, 1 mL, unless otherwise indicated, of deionized and distilled water was added to each tube. Alternatively, a set percentage of water solutions containing the solubilizer to be tested (e.g., 5% w/v or 10% w/v) were prepared separately. In these cases, the solubilizer-water solutions were added directly to the tubes containing the low-solubility compound. The tubes were then vortexed briefly and then sonicated for 60 min at temperature of 50° C. unless otherwise indicated. After sonication, the tubes were placed on an orbital shaker at a speed of 80 rpm in an incubator set at 25° C. for at least 24 hr. The tubes were then centrifuged at 4000 rpm for 10 min. The supernatant solution was passed through a 0.2 μm or 0.45 μm filter and analyzed for the concentration of the low-solubility compound, and sometimes the solubilizing compound, by HPLC or UV-Vis spectrophotometer.
The system was computer controlled, and the results were analyzed using Empower software. Calibrations curves were constructed using known concentrations of the compounds and were used to quantify the concentrations of the compounds dissolved in solution. A more complete description of the HPLC procedure for some of the diterpene glycosides is found in G. Chou et al., “Quantitative and fingerprint analyses of Chinese sweet tea plant (Rubus suavissimus S. Lee),” J. Agric. Food Chem., vol.
The ratio of peak areas was used to calculate the increase in water solubility in the absence or presence of solubilizers.

[7] = system: Streptococcus dysgalactiae ATCC 27957; experiment: Germicidal and Detergent Sanitizer Test (modified AOAC); format: cell-based
Experimental: (§5) Germicidal and Detergent Sanitizer Test. The following challenge organisms were grown in trypticase soy broth for 24 h at 37° C.: Staphylococcus aureus (Gram-positive) ATCC 29740 (Newbould 305), Streptococcus agalactiae (Gram-positive) ATCC 27956 (McDonald 44), Streptococcus dysgalactiae (Gram-positive) ATCC 27957, Streptococcus uberis (Gram-positive) ATCC 27958, Escherichia coli (Gram-negative) ATCC 25922, Pseudomonas aeruginosa (Gram-negative) ATCC 27853, and clinical mastitis isolates of Enterobacter aerogenes (Gram-negative) (216RF) and Klebsiella pneumoniae (Gram-negative) (A37RR) from the Louisiana State University Hill Farm Research Station dairy herd.
(§6) Bacterial cultures. Aliquots of each 24-h bacterial culture were standardized to a turbidity of a 0.5 McFarland standard, which corresponds to approximately 150×10^6 colony-forming units (cfu) per ml. Aliquots containing 0.02 ml of this culture were added to 1.98 ml aliquots of the curcumin-rubusoside solution. […] This solution was mixed thoroughly, and diluted 1:1000 in saline, and 0.1 ml was plated on duplicate Letheen Agar (Becton Dickinson, Cockeysville, Md.) plates for each microorganism tested. Resultant colonies were counted after incubation of the plates at 37° C. for 24 h.
(§7) First Experiment. The test compound was a solubilized curcumin water solution. […] The solution was kept in the dark.
(§8) Second Experiment. For the second experiment, the bacterial cultures were as described above. […] First, 100 mL of a 5% w/v rubusoside water solution was prepared. […] This solution was then autoclaved at 115° C. and 1 atmosphere pressure for 30 min. The autoclaved solution was held in an incubator at 37° C. for 72 hr, and kept in the dark. The solution was adjusted to pH 7.4 by adding appropriate amount of phosphate buffered saline powder and then filtered through a 0.45 μm Nylon filter and analyzed on HPLC.

[8] = system: Pseudomonas aeruginosa ATCC 27853; experiment: as above; format: cell-based
Experimental: as §5, §6, §7, §8

[9] = system: Escherichia coli ATCC 25922; experiment: as above; format: cell-based
Experimental: as §5, §6, §7, §8

[10] = system: Staphylococcus aureus ATCC 29740 (Newbould 305); experiment: as above; format: cell-based
Experimental: as §5, §6, §7, §8

[11] = system: Enterobacter aerogenes (A216RF); experiment: as above; format: cell-based; conditions: solution pH 6.5, 30 Seconds
Experimental: as §5, §6, §7, §8

[12] = system: Streptococcus agalactiae ATCC 27956 (McDonald 44); experiment: as above; format: cell-based
Experimental: as §5, §6, §7, §8

[13] = system: Klebsiella pneumoniae (A37RR); experiment: as above; format: cell-based; conditions: solution pH 6.5, 30 Seconds
Experimental: as §5, §6, §7, §8

[14] = system: Streptococcus uberis ATCC 27958; experiment: as above; format: cell-based; conditions: solution pH 6.5, 30 Seconds
Experimental: as §5, §6, §7, §8

[15] = in vivo; cited from earlier work
[16] = volume of aqueous sample per ml culture medium
[17] = Homo sapiens, converted from μl/ml, read-out: IC50

Q: What does the source list for `CC[C@@]1(O)C(=O)OCc2c1cc1n(c2=O)Cc2cc3ccccc3nc2-1` [Camptothecin]?
A: IC50 [1]: 10 to 3500 nM; Water solubility in words [2]: insoluble; IC50 [3, 16]: 1.03 μl/ml; IC50 [3, 17]: 29.6 nM; IC50 [4, 16]: 4.93 μl/ml; IC50 [4, 17]: 142 nM; IC50 [5, 16]: 1.91 μl/ml; IC50 [5, 17]: 54.9 nM; Stability of rubusoside water solution at room temperature [6]: stable at room temperature for at least two weeks; Concentration dissolved in rubusoside water solution (physchem; 70 mg (109 mM) rubusoside): 144 µM; Concentration dissolved in rubusoside water solution (physchem; 70 mg rubusoside (70 mg/ml, 109 mM)): 50 µg/mL; solubility (physchem; aqueous with cosolvent or surfactant or cyclodextrin, Solubility in water with solubilizer, natural solubilizer (rubusoside) 20% w/v (200 mg in 1 ml)): 144 µg/mL (≈ 413 µM); solubility (physchem; water, Solubility of CPT, Table 4, rubusoside amount as in the label): 0.4 µg/mL (≈ 1.15 µM)

Q: Which Percent reduction ([7]; solution pH 6.5, 10 Minutes) does the source give for `COc1cc(/C=C/C(=O)CC(=O)/C=C/c2ccc(O)c(OC)c2)ccc1O` [Curcumin] here?
A: Its Percent reduction is 47.92%.

Q: And the Percent reduction ([7]; solution pH 6.5, 30 Seconds)?
A: The Percent reduction was 43.75%.

Q: And the Percent reduction ([8]; solution pH 6.5, 10 Minutes)?
A: Its Percent reduction is 99.99%.

Q: What about the Percent reduction ([8]; solution pH 6.5, 30 Seconds) of the same compound?
A: The Percent reduction was 99.99%.

Q: What about the Percent reduction ([9]; solution pH 6.5, 10 Minutes) of the same compound?
A: The Percent reduction was 98.54%.

Q: And the Percent reduction ([9]; solution pH 6.5, 30 Seconds)?
A: The Percent reduction was “no observed inhibition”.

Q: What about the Percent reduction ([10]; solution pH 6.5, 10 Minutes) of the same compound?
A: The Percent reduction was 26.67%.

Q: And the Percent reduction ([10]; solution pH 6.5, 30 Seconds)?
A: The Percent reduction was 39.33%.

Q: What about the Percent reduction [11] of the same compound?
A: The Percent reduction was “no observed inhibition”.

Q: What about the Percent reduction ([12]; solution pH 6.5, 10 Minutes) of the same compound?
A: The Percent reduction was 99.7%.

Q: And the Percent reduction ([12]; solution pH 6.5, 30 Seconds)?
A: The Percent reduction was 91.7%.

Q: And the Percent reduction [13]?
A: Its Percent reduction is “no observed inhibition”.

Q: What about the Percent reduction [14] of the same compound?
A: The Percent reduction was “no observed inhibition”.

Q: Which Half-life [15] does the source give for `CCCCN(CCCC)CC(O)c1cc(Cl)cc2c1-c1ccc(Cl)cc1/C2=C/c1ccc(Cl)cc1` (stereo not drawn) [Lumefantrine] here?
A: The Half-life was 72 to 140 h.
